In patent US20110288116A1, “IAP INHIBITORS” (TETRALOGIC PHARMACEUITCAL CORPORATION, priority 2008, published 2011):

molecular target: T1, cIAP-1 BIR-3 (Homo sapiens, UniProt Q13490); test: Fluorescence polarization binding to cIAP-1 BIR-3 (competition with AbuRPF-K(5-Fam)-NH2); settings: cells marked (cIAP-1): cIAP-1 BIR-3; reported as range class
T1 construct: "cIAP-1 BIR-3"
Procedure: (§1) The binding affinities of the compounds are reported as a Kd value. Briefly, various concentrations of test peptides were mixed with 5 nM of the fluorescently labeled peptide (i.e., a mutated N-terminal Smac peptide—AbuRPF-K(5-Fam)-NH2) and 40 nM of the BIR3 for 15 min at RT in […] of 0.1M Potassium Phosphate buffer, pH 7.5 containing […] bovine g-globulin. Following incubation, the polarization values (mP) were measured on a Victor2V (available from PerkinElmer Life Sciences) using a 485 nm excitation filter and a 520 nm emission filter. The reported Kd values are supplied as ranges (A=<0.1 μM, B=0.1 μM to C=>1 μM to 10 μM, D=>10 μM) and, unless otherwise indicated, are the Kd for XIAP BIR-3.

T1 sequence (Q13490 266-343 limits assumed): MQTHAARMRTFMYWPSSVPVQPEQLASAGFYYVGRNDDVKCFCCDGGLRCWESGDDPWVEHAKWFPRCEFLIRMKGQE

Row | SMILES | Kd [µM]
1 | CCc1ccc2c(c1)[C@@H](C[C@@H]1C[C@H](O)CN1C(=O)[C@@H](NC(=O)[C@H](C)NC)C1CCCCC1)CN2C(C)=O [BBBB] | > 0.1
2 | CCN[C@@H](C)C(=O)N[C@H](C(=O)N1CC[C@H](O)[C@H]1Cc1c[nH]c2ncccc12)[C@@H](C)OC [CC] | < 0.1
3 | CCc1ccc2c(c1)[C@@H](C[C@@H]1C[C@H](O)CN1C(=O)[C@@H](NC(=O)[C@H](C)NC)[C@@H](C)OC)CN2C(C)=O [DDDD] | < 0.1
4 | CC[C@H](NC)C(=O)N[C@H](C(=O)N1CC[C@@H](O)[C@H]1Cc1c(-c2ccc(F)cc2)[nH]c2ccccc12)[C@@H](C)O [DDD] | < 0.1
5 | CN[C@@H](C)C(=O)N[C@H](C(=O)N1CC[C@H](O)[C@H]1Cc1c[nH]c2ncccc12)C(C)C [DD] | < 0.1
6 | CCN[C@@H](C)C(=O)N[C@H](C(=O)N1CC[C@@H](O)[C@H]1Cc1c[nH]c2ccccc12)[C@@H](C)O [DD′] | < 0.1
7 | CCN[C@@H](C)C(=O)N[C@H](C(=O)N1CC[C@H](O)[C@H]1Cc1c[nH]c2ncccc12)C(C)C [EE] | < 0.1
8 | CCN[C@@H](C)C(=O)N[C@@H](COC)C(=O)N1CC[C@@H](O)[C@H]1Cc1c(-c2ccc(F)cc2)[nH]c2ccccc12 [FFF] | > 0.1
9 | CCN[C@@H](C)C(=O)N[C@H](C(=O)N1CC[C@@H](O)[C@H]1Cc1c[nH]c2ccccc12)[C@@H](C)OC [GG′] | < 0.1

Second part, the compound after the results:

Row | Kd [µM] | SMILES
10 | < 0.1 | CCN[C@@H](C)C(=O)N[C@H](C(=O)N1CC[C@H](O)[C@H]1Cc1c[nH]c2ncccc12)C(C)(C)C [AA]
11 | < 0.1 | CN[C@@H](C)C(=O)N[C@H](C(=O)N1CC[C@H](O)[C@H]1Cc1c[nH]c2ncccc12)[C@@H](C)OC [BB]
12 | < 0.1 | CC[C@H](NC)C(=O)N[C@H](C(=O)N1CC[C@H](O)[C@H]1Cc1c(Cl)[nH]c2cc(F)ccc12)[C@@H](C)OC [BB′]
13 | > 0.1 | CCN[C@@H](C)C(=O)N[C@H](C(=O)N1C[C@@H](O)C[C@H]1C[C@H]1CN(C(C)=O)c2ccc(CC)cc21)C1CCCCC1 [CCCC]
14 | < 0.1 | CCN[C@@H](C)C(=O)N[C@H](C(=O)N1CC[C@@H](O)[C@H]1Cc1c(-c2ccc(F)cc2)[nH]c2ccccc12)[C@@H](C)O [CCC]
15 | < 0.1 | CN[C@@H](C)C(=O)N[C@H](C(=O)N1CC[C@H](O)[C@H]1Cc1c(Cl)[nH]c2cc(F)ccc12)[C@@H](C)OC [CC′, N-{1-[2-(2-Chloro-6-fluoro-1H-indol-3-ylmethyl)-3-hydroxy-pyrrolidine-1-carbonyl]-2-methoxy-propyl}-2-methylamino-propionamide]
16 | < 0.1 | CN[C@@H](C)C(=O)N[C@H](C(=O)N1CC[C@@H](O)[C@H]1Cc1c(-c2ccc(F)cc2)[nH]c2ccccc12)[C@@H](C)O [EEE]
17 | > 0.1 | CN[C@@H](C)C(=O)N[C@@H](COC)C(=O)N1CC[C@@H](O)[C@H]1Cc1c(-c2ccc(F)cc2)[nH]c2ccccc12 [HHH]
18 | < 0.1 | CCN[C@@H](C)C(=O)N[C@H](C(=O)N1CC[C@@H](O)[C@H]1Cc1c(-c2ccc(F)cc2)[nH]c2ccccc12)C1CCCCC1 [III]
19 | < 0.1 | CCN[C@@H](C)C(=O)N[C@H](C(=O)N1CC[C@@H](O)[C@H]1Cc1c[nH]c2ccccc12)C1CCCCC1 [JJ′]
20 | < 0.1 | CC[C@H](NC)C(=O)N[C@H](C(=O)N1CC[C@@H](O)[C@H]1Cc1c[nH]c2ccccc12)C1CCCCC1 [KK′]

molecular target: T2, XIAP BIR-3 (Homo sapiens, UniProt P98170); test: Fluorescence polarization binding to XIAP BIR-3 (competition with AbuRPF-K(5-Fam)-NH2); settings: XIAP BIR-3 (default where cell does not indicate otherwise); reported as range class
T2 construct: 40 nM of the BIR3 for 15 min at RT
T2 sequence (P98170 241-356 limits assumed): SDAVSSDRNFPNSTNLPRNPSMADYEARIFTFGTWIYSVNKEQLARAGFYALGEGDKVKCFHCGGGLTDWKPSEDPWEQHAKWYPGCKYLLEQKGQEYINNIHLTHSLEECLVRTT
Procedure: as §1

Row | SMILES | Kd [µM]
21 | CN[C@@H](CO)C(=O)N[C@H](C(=O)N1CC[C@H](C)[C@H]1Cc1c[nH]c2cc(F)ccc12)[C@@H](C)OC [LL] | > 10
22 | CN[C@@H](C)C(=O)N[C@H](C(=O)N1CC[C@H](OC)[C@H]1Cc1c[nH]c2cc(F)ccc12)[C@@H](C)OC [L′] | > 10
23 | CN[C@@H](C)C(=O)N[C@H](C(=O)N1CC[C@H](C)[C@H]1Cc1c[nH]c2cc(F)ccc12)[C@@H](C)O [NN] | 1 to 10
24 | CCNCC(=O)N[C@H](C(=O)N1CCC[C@H]1Cc1c[nH]c2ncccc12)C(C)(C)C [N] | 1 to 10
25 | CN[C@@H](CO)C(=O)N[C@H](C(=O)N1CCC[C@H]1Cc1c[nH]c2ncccc12)C(C)(C)C [O] | < 0.1
26 | CN[C@@H](CO)C(=O)N[C@H](C(=O)N1CC[C@H](C)[C@H]1Cc1c[nH]c2cc(F)ccc12)[C@@H](C)O [PP] | > 10
27 | CN[C@@H](C)C(=O)N[C@H](C(=O)N1CCC[C@H]1Cc1c[nH]c2c1ccc[n+]2[O-])[C@@H](C)OC [P] | < 0.1
28 | CN[C@@H](C)C(=O)N[C@H](C(=O)N1CC[C@H](OC)[C@H]1Cc1c(Cl)[nH]c2cc(F)ccc12)[C@@H](C)OC [P′] | < 0.1
29 | CC[C@H](NC)C(=O)N[C@H](C(=O)N1CC[C@H](OC)[C@H]1Cc1c(Cl)[nH]c2cc(F)ccc12)[C@@H](C)OC [Q′] | > 0.1
30 | CN[C@@H](C)C(=O)N[C@H](C(=O)N1CCC[C@H]1Cc1c[nH]c2c1ccc[n+]2[O-])C(C)(C)C [S] | < 0.1
31 | CC[C@H](NC)C(=O)N[C@H](C(=O)N1CC[C@H](O)[C@H]1Cc1c[nH]c2cc(F)ccc12)[C@@H](C)OC [TT] | < 0.1
32 | CC[C@H](NC)C(=O)N[C@H](C(=O)N1CCC[C@H]1Cc1cn(C)c2ncccc12)[C@@H](C)OC [T] | < 0.1
33 | CN[C@@H](C)C(=O)N[C@H](C(=O)N1CC[C@H](O)[C@H]1Cc1c[nH]c2cc(F)ccc12)C(C)(C)C [UU] | < 0.1
34 | CN[C@@H](C)C(=O)N[C@H](C(=O)N1CCC[C@H]1Cc1cn(C)c2ncccc12)[C@@H](C)OC [U] | < 0.1
35 | CC[C@H](NC)C(=O)N[C@H](C(=O)N1CC[C@H](O)[C@H]1Cc1c[nH]c2cc(F)ccc12)C(C)(C)C [VV] | < 0.1
36 | CCN[C@@H](C)C(=O)N[C@H](C(=O)N1CC[C@H](O)[C@H]1Cc1cn(C)c2cc(F)ccc12)[C@@H](C)OC [ZZ] | < 0.1

Continued, values first:

Row | Kd [µM] | SMILES
37 | > 10 | CC[C@H](NC)C(=O)N[C@H](C(=O)N1CC[C@H](C)[C@H]1Cc1c[nH]c2cc(F)ccc12)[C@@H](C)OC [KK]
38 | < 0.1 | CN[C@@H](C)C(=O)N[C@H](C(=O)N1CC[C@@H](O)[C@H]1Cc1c[nH]c2ccccc12)C1CCCCC1 [LL′, N-{1-Cyclohexyl-2-[3-hydroxy-2-(1H-indol-3-ylmethyl)-pyrrolidin-1-yl]-2-oxo-ethyl}-2-methylamino-propionamide]
39 | 1 to 10 | CCN[C@@H](C)C(=O)N[C@H](C(=O)N1CC[C@H](C)[C@H]1Cc1c[nH]c2cc(F)ccc12)[C@@H](C)OC [MM]
40 | > 0.1 | CN[C@@H](C)C(=O)N[C@H](C(=O)N1CC[C@H](OC)[C@H]1Cc1c(Cl)[nH]c2cc(F)ccc12)[C@@H](C)O [N′]
41 | > 0.1 | CC[C@H](NC)C(=O)N[C@H](C(=O)N1CC[C@H](OC)[C@H]1Cc1c(Cl)[nH]c2cc(F)ccc12)[C@@H](C)O [O′]
42 | > 10 | CCN[C@@H](C)C(=O)N[C@H](C(=O)N1CC[C@H](C)[C@H]1Cc1c[nH]c2cc(F)ccc12)[C@@H](C)O [QQ]
43 | > 0.1 | CCN[C@@H](C)C(=O)N[C@H](C(=O)N1CCC[C@H]1Cc1c[nH]c2c1ccc[n+]2[O-])[C@@H](C)OC [Q]
44 | > 0.1 | CCN[C@@H](C)C(=O)N[C@H](C(=O)N1CC[C@H](OC)[C@H]1Cc1c(Cl)[nH]c2cc(F)ccc12)[C@@H](C)OC [R′]
45 | 1 to 10 | CN[C@@H](CO)C(=O)N[C@H](C(=O)N1CC[C@H](OC)[C@H]1Cc1c(Cl)[nH]c2cc(F)ccc12)[C@@H](C)OC [S′]
46 | < 0.1 | CN[C@@H](C)C(=O)N[C@H](C(=O)N1CC[C@H](O)[C@H]1Cc1cn(C)c2cc(F)ccc12)[C@@H](C)OC [YY]
47 | < 0.1 | CN[C@@H](C)C(=O)N[C@H](C(=O)N1CCC[C@H]1Cc1c(-c2ccccc2)n(C)c2ncccc12)[C@@H](C)OC [Y]
